Values of other authors as cited in patent publication US20040258778A1, “Lactation cessation and breast engorgement compositions and method of use” (priority 2003, published 2004).

Tested on: lactating women

For `CC(C)C[C@H]1C(=O)N2CCC[C@H]2[C@]2(O)O[C@](NC(=O)[C@@H]3C=C4c5cccc6[nH]c(Br)c(c56)C[C@H]4N(C)C3)(C(C)C)C(=O)N12` [bromocriptine], the “rebound engorgement, share of the time” value (after a two-week course of treatment ends, according to the official labeling) is listed as “up to 40%” and the “very serious side effects reported” value (use to suppress lactation (Iffy, 1998)) is listed as “strokes, seizures (convulsions), intracranial bleeding, cerebral edema, and heart attacks”.
